# From the supplement of paper PMC10307832
# What was measured:
# Experiment in all cases: relative viability (nuclei count vs DMSO), 5 days (fraction); higher = more cells survive
# Vemurafenib + Luminespib = compound: CCCS(=O)(=O)Nc1ccc(F)c(C(=O)c2c[nH]c3ncc(-c4ccc(Cl)cc4)cc23)c1F [Vemurafenib] + CCNC(=O)c1noc(-c2cc(C(C)C)c(O)cc2O)c1-c1ccc(CN2CCOCC2)cc1 [Luminespib] (partner 0.01 µM)
# Procedure, shortened: (§1)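 Medians of duplicate plates are given as relative viability. That measure is the nuclei count in treated wells divided by the count in vehicle wells. Counts were taken on 4× images of lung cancer cell lines in 1536-well plates, 5 days after pin-tool dosing the day after seeding with one drug alone or a fixed anchor-drug dose plus five library-drug doses (not always all listed) in √10 steps.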
# Vemurafenib + OSI-027 = compound: CCCS(=O)(=O)Nc1ccc(F)c(C(=O)c2c[nH]c3ncc(-c4ccc(Cl)cc4)cc23)c1F [Vemurafenib] + COc1cccc2cc(-c3nc([C@H]4CC[C@H](C(=O)O)CC4)n4ncnc(N)c34)[nH]c12 [OSI-027] (partner 0.5 µM)
# Procedure, shortened: as §1
# Vemurafenib + Linsitinib = compound: CCCS(=O)(=O)Nc1ccc(F)c(C(=O)c2c[nH]c3ncc(-c4ccc(Cl)cc4)cc23)c1F [Vemurafenib] + C[C@]1(O)C[C@@H](c2nc(-c3ccc4ccc(-c5ccccc5)nc4c3)c3c(N)nccn32)C1 [Linsitinib] (partner 1 µM)
# Procedure, shortened: as §1
# OSI-027 + Palbociclib = compound: COc1cccc2cc(-c3nc([C@H]4CC[C@H](C(=O)O)CC4)n4ncnc(N)c34)[nH]c12 [OSI-027] + CC(=O)c1c(C)c2cnc(Nc3ccc(N4CCNCC4)cn3)nc2n(C2CCCC2)c1=O [Palbociclib] (partner 0.5 µM)
# Procedure, shortened: as §1
Cell Line,relative viability (Vemurafenib + Luminespib; first compound 0.03162 µM),relative viability (Vemurafenib + Luminespib; first compound 0.3162 µM),relative viability (Vemurafenib + Luminespib; first compound 1 µM),relative viability (Vemurafenib + OSI-027; first compound 0.03162 µM),relative viability (Vemurafenib + OSI-027; first compound 0.3162 µM),relative viability (Vemurafenib + OSI-027; first compound 1 µM),relative viability (Vemurafenib + Linsitinib; first compound 0.03162 µM),relative viability (Vemurafenib + Linsitinib; first compound 0.3162 µM),relative viability (Vemurafenib + Linsitinib; first compound 1 µM),relative viability (OSI-027 + Palbociclib; first compound 0.01 µM),relative viability (OSI-027 + Palbociclib; first compound 0.03162 µM),relative viability (OSI-027 + Palbociclib; first compound 0.1 µM),relative viability (OSI-027 + Palbociclib; first compound 0.3162 µM),relative viability (OSI-027 + Palbociclib; first compound 1 µM),relative viability (Vemurafenib + Luminespib; first compound 0.1 µM),relative viability (Vemurafenib + OSI-027; first compound 0.1 µM),relative viability (Vemurafenib + Linsitinib; first compound 0.1 µM)
H3255,0.837,0.824,0.809,0.582,0.583,0.565,1,0.757,0.983,0.294,0.309,0.303,0.271,0.321,,,
NCI-H1395,0.679,,0.555,0.606,,0.659,0.948,,1.13,0.654,0.609,0.529,0.45,0.505,0.445,0.651,1.02
NCI-H1355,0.664,0.696,0.672,0.41,0.386,0.351,0.713,0.801,0.758,0.4,0.392,0.317,0.264,0.257,0.662,0.341,0.709
IA-LM,,,,,,,0.537,0.603,0.554,,,,,,,,0.53
HCC-827,0.654,0.537,0.669,0.754,0.766,0.704,0.878,0.924,0.926,0.507,0.414,0.507,0.299,0.207,,,
NCI-H2085,0.451,0.423,0.492,0.645,0.663,0.637,0.862,0.797,1.01,0.463,0.515,0.458,0.428,0.446,0.425,0.37,0.626
NCI-H1755,0.442,0.332,0.462,0.696,0.586,0.632,0.946,0.978,0.91,0.483,0.444,0.421,0.445,0.336,0.574,0.687,0.889
PC-14,0.234,0.18,0.148,0.822,0.741,0.767,0.93,0.922,0.995,0.512,0.509,0.545,0.576,0.408,,,
NCI-H3122,0.138,0.0825,0.101,0.932,1.04,0.899,1,1.01,1.13,0.167,0.177,0.175,0.168,0.152,0.123,0.893,0.895
SK-LU-1,0.208,0.171,0.218,0.315,0.245,0.269,0.93,0.915,1.03,0.373,0.381,0.394,0.302,0.268,0.219,0.342,0.958
HCC-44,0.915,,1.07,0.419,,0.426,0.612,0.709,0.716,0.904,0.945,0.955,0.929,0.877,1.19,0.361,0.67
NCI-H1703,,,,,,,0.738,0.637,0.787,,,,,,,,0.644
NCI-H460,0.0379,0.0345,0.0293,0.549,0.456,0.473,0.677,0.879,0.777,0.18,0.186,0.186,0.158,0.092,0.0333,0.623,0.839
NCI-H1563,0.505,0.563,0.59,0.693,0.734,0.723,1.2,1.3,1.25,,,,,,0.475,0.757,1.11
NCI-H596,0.984,1.01,0.958,0.686,0.577,0.492,1.07,1.12,1.06,,,,,,1.1,0.723,0.918
SW 900,0.168,0.207,0.208,0.527,0.535,0.433,,,,0.531,0.579,0.577,0.375,0.288,0.174,0.545,
EBC-1,,,,,,,0.859,0.891,1.02,,,,,,,,0.822
NCI-H1299,,,,,,,1.02,0.83,0.951,,,,,,,,0.958
NCI-H1623,0.631,0.679,0.414,0.405,0.521,0.419,,,,,,,,,,,
NCI-H1650,,,0.215,,,0.537,,,,0.361,0.344,0.278,0.357,0.286,0.205,0.448,
HCC-366,,,,0.886,0.674,0.418,0.637,,0.601,0.465,0.348,0.412,0.309,0.1,,0.843,0.603
ChaGo-K-1,0.555,0.548,0.551,0.535,0.419,0.487,,,,0.946,0.942,0.904,0.87,0.774,0.45,0.549,
NCI-H522,0.96,,1.13,0.778,0.638,0.697,,,,0.995,0.938,1.04,0.79,0.535,1.14,0.635,
NCI-H1648,,,,0.261,0.335,0.259,,,,0.37,0.267,,0.222,0.266,,,
A549,,,,,,,0.584,0.515,0.567,,,,,,,,0.444
HCC-78,,,,0.366,0.649,0.398,0.627,0.679,0.502,0.484,0.452,0.483,0.45,0.411,,0.322,0.458
Calu-6,,,,,,,,0.745,0.927,,,,,,,,0.981
